Assay results: ChEMBL document CHEMBL3045388, “Sensitivity of Podosphaera aphanis isolates to DMI fungicides: distribution and reduced cross-sensitivity” (Pest Manag Sci, 2010)
In brackets after ≈: the same amount, converted by molar mass.

Assays:
Type in all cases: functional, organism-based
Podosphaera aphanis [1] = experiment: Antifungal activity against Podosphaera aphanis isolate PAJ in Darselect leaf disks after 8 days; conditions: 192 h
Podosphaera aphanis [2] = experiment: Antifungal activity against Podosphaera aphanis isolate VIR in Darselect leaf disks after 8 days; conditions: 192 h
Podosphaera aphanis [3] = experiment: Antifungal activity against Podosphaera aphanis isolate ABA in Darselect leaf disks after 8 days; conditions: 192 h
Podosphaera aphanis [4] = experiment: Antifungal activity against Podosphaera aphanis isolate AVI in Darselect leaf disks after 8 days; conditions: 192 h
Podosphaera aphanis [5] = experiment: Antifungal activity against Podosphaera aphanis isolate MEG in Darselect leaf disks after 8 days; conditions: 192 h
Podosphaera aphanis [6] = experiment: Antifungal activity against Podosphaera aphanis isolate MEP in Darselect leaf disks after 8 days; conditions: 192 h
Podosphaera aphanis [7] = experiment: Antifungal activity against Podosphaera aphanis isolate LBP in Darselect leaf disks after 8 days; conditions: 192 h
Podosphaera aphanis [8] = experiment: Antifungal activity against Podosphaera aphanis isolate PES in Darselect leaf disks after 8 days; conditions: 192 h
Podosphaera aphanis [9] = experiment: Antifungal activity against Podosphaera aphanis isolate BRA in Darselect leaf disks after 8 days; conditions: 192 h
Podosphaera aphanis [10] = experiment: Antifungal activity against Podosphaera aphanis isolate SAG in Darselect leaf disks after 8 days; conditions: 192 h
Podosphaera aphanis [11] = experiment: Antifungal activity against Podosphaera aphanis isolate CAM in Darselect leaf disks after 8 days; conditions: 192 h
Podosphaera aphanis [12] = experiment: Antifungal activity against Podosphaera aphanis isolate SOU in Darselect leaf disks after 8 days; conditions: 192 h
Podosphaera aphanis [13] = experiment: Antifungal activity against Podosphaera aphanis isolate ART in Darselect leaf disks after 8 days; conditions: 192 h
Podosphaera aphanis [14] = experiment: Antifungal activity against Podosphaera aphanis isolate HOR in Darselect leaf disks after 8 days; conditions: 192 h
Podosphaera aphanis [15] = experiment: Antifungal activity against Podosphaera aphanis isolate LI1 in Darselect leaf disks after 8 days; conditions: isolate LI1, 192 h
Podosphaera aphanis [16] = experiment: Antifungal activity against Podosphaera aphanis isolate SIL in Darselect leaf disks after 8 days; conditions: 192 h
Podosphaera aphanis [17] = experiment: Antifungal activity against Podosphaera aphanis isolate DAR18 in Darselect leaf disks after 8 days; conditions: isolate DAR18, 192 h
Podosphaera aphanis [18] = experiment: Antifungal activity against Podosphaera aphanis isolate BRE in Darselect leaf disks after 8 days; conditions: 192 h
Podosphaera aphanis [19] = experiment: Antifungal activity against Podosphaera aphanis isolate SOD in Darselect leaf disks after 8 days; conditions: 192 h
Podosphaera aphanis [20] = experiment: Antifungal activity against Podosphaera aphanis isolate DOU in Darselect leaf disks after 8 days; conditions: 192 h
Podosphaera aphanis [21] = experiment: Antifungal activity against Podosphaera aphanis isolate SOC in Darselect leaf disks after 8 days; conditions: 192 h
Podosphaera aphanis [22] = experiment: Antifungal activity against Podosphaera aphanis isolate GUI in Darselect leaf disks after 8 days; conditions: 192 h
Podosphaera aphanis [23] = experiment: Antifungal activity against Podosphaera aphanis isolate MAR in Darselect leaf disks after 8 days; conditions: 192 h
Podosphaera aphanis [24] = experiment: Antifungal activity against Podosphaera aphanis isolate DAR1 in Darselect leaf disks after 8 days; conditions: isolate DAR1, 192 h

For CCCCC(C#N)(Cn1cncn1)c1ccc(Cl)cc1 (centres undefined) [MYCLOBUTANIL], the EC50 (Podosphaera aphanis [1]) was 3 µg/mL (≈ 10.4 µM), the MIC (Podosphaera aphanis [1]) was 6.9 µg/mL (≈ 23.9 µM) and the EC50 (Podosphaera aphanis [2]) was 1.8 µg/mL (≈ 6.23 µM). The MIC (Podosphaera aphanis [2]) was 5 µg/mL (≈ 17.3 µM), the EC50 (Podosphaera aphanis [3]) was 3.75 µg/mL (≈ 13 µM) and the MIC (Podosphaera aphanis [3]) was 9 µg/mL (≈ 31.2 µM). For the same molecule, the EC50 (Podosphaera aphanis [4]) was 0.5 µg/mL (≈ 1.73 µM), the MIC (Podosphaera aphanis [4]) was 2 µg/mL (≈ 6.93 µM) and the EC50 (Podosphaera aphanis [5]) was 1 µg/mL (≈ 3.46 µM). For the same molecule, the MIC (Podosphaera aphanis [5]) was 2.35 µg/mL (≈ 8.14 µM), the EC50 (Podosphaera aphanis [6]) was 0.8 µg/mL (≈ 2.77 µM) and the MIC (Podosphaera aphanis [6]) was 3 µg/mL (≈ 10.4 µM). The EC50 (Podosphaera aphanis [7]) was 4.8 µg/mL (≈ 16.6 µM), the MIC (Podosphaera aphanis [7]) was 12.5 µg/mL (≈ 43.3 µM) and the EC50 (Podosphaera aphanis [8]) was less than 0.1 µg/mL. For the same molecule, the MIC (Podosphaera aphanis [8]) was less than 0.1 µg/mL, the EC50 (Podosphaera aphanis [9]) was 1.3 µg/mL (≈ 4.5 µM) and the MIC (Podosphaera aphanis [9]) was 3 µg/mL (≈ 10.4 µM). The EC50 (Podosphaera aphanis [10]) was 1.7 µg/mL (≈ 5.89 µM), the MIC (Podosphaera aphanis [10]) was 5.33 µg/mL (≈ 18.5 µM) and the EC50 (Podosphaera aphanis [11]) was 2.6 µg/mL (≈ 9 µM). The MIC (Podosphaera aphanis [11]) was 5.5 µg/mL (≈ 19 µM), the EC50 (Podosphaera aphanis [12]) was 10 µg/mL (≈ 34.6 µM) and the MIC (Podosphaera aphanis [12]) was 23 µg/mL (≈ 79.6 µM). The EC50 (Podosphaera aphanis [13]) was 3.9 µg/mL (≈ 13.5 µM), the MIC (Podosphaera aphanis [13]) was 10.7 µg/mL (≈ 37.1 µM) and the EC50 (Podosphaera aphanis [14]) was 4.25 µg/mL (≈ 14.7 µM). The MIC (Podosphaera aphanis [14]) was 10.8 µg/mL (≈ 37.2 µM), the EC50 (Podosphaera aphanis [15]) was 3.6 µg/mL (≈ 12.5 µM) and the MIC (Podosphaera aphanis [15]) was 8.5 µg/mL (≈ 29.4 µM). The EC50 (Podosphaera aphanis [16]) was 2 µg/mL (≈ 6.93 µM), the MIC (Podosphaera aphanis [16]) was 6.5 µg/mL (≈ 22.5 µM) and the EC50 (Podosphaera aphanis [17]) was 14.7 µg/mL (≈ 50.8 µM). The MIC (Podosphaera aphanis [17]) was 31 µg/mL (≈ 107 µM), the EC50 (Podosphaera aphanis [18]) was 5.3 µg/mL (≈ 18.4 µM) and the MIC (Podosphaera aphanis [18]) was 13.7 µg/mL (≈ 47.4 µM). It also gave an EC50 (Podosphaera aphanis [19]) of 13.1 µg/mL (≈ 45.4 µM), an MIC (Podosphaera aphanis [19]) of 21.5 µg/mL (≈ 74.5 µM) and an EC50 (Podosphaera aphanis [20]) of 8.9 µg/mL (≈ 30.8 µM). For the same molecule, the MIC (Podosphaera aphanis [20]) was 15.5 µg/mL (≈ 53.7 µM), the EC50 (Podosphaera aphanis [21]) was 6.45 µg/mL (≈ 22.3 µM) and the MIC (Podosphaera aphanis [21]) was 26 µg/mL (≈ 90 µM). The EC50 (Podosphaera aphanis [22]) was 1.15 µg/mL (≈ 3.98 µM), the MIC (Podosphaera aphanis [22]) was 2.35 µg/mL (≈ 8.14 µM) and the EC50 (Podosphaera aphanis [23]) was 5.5 µg/mL (≈ 19 µM). It also gave an MIC (Podosphaera aphanis [23]) of 16 µg/mL (≈ 55.4 µM), an EC50 (Podosphaera aphanis [24]) of 4.75 µg/mL (≈ 16.4 µM) and an MIC (Podosphaera aphanis [24]) of 15 µg/mL (≈ 51.9 µM).
In the case of CCCC(Cn1cncn1)c1ccc(Cl)cc1Cl (centres undefined) [PENCONAZOLE], the EC50 (Podosphaera aphanis [1]) is reported as 2.9 µg/mL (≈ 10.2 µM), the MIC (Podosphaera aphanis [1]) is reported as 3.9 µg/mL (≈ 13.7 µM) and the EC50 (Podosphaera aphanis [2]) is reported as 2 µg/mL (≈ 7.04 µM). For the same molecule, the MIC (Podosphaera aphanis [2]) was 5 µg/mL (≈ 17.6 µM), the EC50 (Podosphaera aphanis [3]) was 1.25 µg/mL (≈ 4.4 µM) and the MIC (Podosphaera aphanis [3]) was 2.85 µg/mL (≈ 10 µM). The EC50 (Podosphaera aphanis [4]) was 0.58 µg/mL (≈ 2.04 µM), the MIC (Podosphaera aphanis [4]) was 1.8 µg/mL (≈ 6.33 µM) and the EC50 (Podosphaera aphanis [5]) was 0.43 µg/mL (≈ 1.51 µM). It also gave an MIC (Podosphaera aphanis [5]) of 1 µg/mL (≈ 3.52 µM), an EC50 (Podosphaera aphanis [6]) of 0.3 µg/mL (≈ 1.06 µM) and an MIC (Podosphaera aphanis [6]) of 0.8 µg/mL (≈ 2.82 µM). The EC50 (Podosphaera aphanis [7]) was 4.2 µg/mL (≈ 14.8 µM), the MIC (Podosphaera aphanis [7]) was 9.5 µg/mL (≈ 33.4 µM) and the EC50 (Podosphaera aphanis [8]) was 0.04 µg/mL (≈ 0.141 µM). The MIC (Podosphaera aphanis [8]) was 0.15 µg/mL (≈ 0.528 µM), the EC50 (Podosphaera aphanis [9]) was 1.48 µg/mL (≈ 5.21 µM) and the MIC (Podosphaera aphanis [9]) was 2.6 µg/mL (≈ 9.15 µM). For the same molecule, the EC50 (Podosphaera aphanis [10]) was 0.28 µg/mL (≈ 0.985 µM), the MIC (Podosphaera aphanis [10]) was 0.5 µg/mL (≈ 1.76 µM) and the EC50 (Podosphaera aphanis [11]) was 0.9 µg/mL (≈ 3.17 µM). It also gave an MIC (Podosphaera aphanis [11]) of 2.5 µg/mL (≈ 8.8 µM), an EC50 (Podosphaera aphanis [12]) of 2.1 µg/mL (≈ 7.39 µM) and an MIC (Podosphaera aphanis [12]) of 9.8 µg/mL (≈ 34.5 µM). For the same molecule, the EC50 (Podosphaera aphanis [13]) was 2.2 µg/mL (≈ 7.74 µM), the MIC (Podosphaera aphanis [13]) was 6.6 µg/mL (≈ 23.2 µM) and the EC50 (Podosphaera aphanis [14]) was 0.8 µg/mL (≈ 2.82 µM). The MIC (Podosphaera aphanis [14]) was 2 µg/mL (≈ 7.04 µM), the EC50 (Podosphaera aphanis [15]) was 2.45 µg/mL (≈ 8.62 µM) and the MIC (Podosphaera aphanis [15]) was 5.15 µg/mL (≈ 18.1 µM). It also gave an EC50 (Podosphaera aphanis [16]) of 0.4 µg/mL (≈ 1.41 µM), an MIC (Podosphaera aphanis [16]) of 1 µg/mL (≈ 3.52 µM) and an EC50 (Podosphaera aphanis [17]) of 3.5 µg/mL (≈ 12.3 µM). For the same molecule, the MIC (Podosphaera aphanis [17]) was 9 µg/mL (≈ 31.7 µM), the EC50 (Podosphaera aphanis [18]) was 1.9 µg/mL (≈ 6.69 µM) and the MIC (Podosphaera aphanis [18]) was 6 µg/mL (≈ 21.1 µM). It also gave an EC50 (Podosphaera aphanis [20]) of 1.3 µg/mL (≈ 4.57 µM), an MIC (Podosphaera aphanis [20]) of 2 µg/mL (≈ 7.04 µM) and an EC50 (Podosphaera aphanis [21]) of 3.2 µg/mL (≈ 11.3 µM). For the same molecule, the MIC (Podosphaera aphanis [21]) was 7.9 µg/mL (≈ 27.8 µM), the EC50 (Podosphaera aphanis [22]) was 0.9 µg/mL (≈ 3.17 µM) and the MIC (Podosphaera aphanis [22]) was 2.1 µg/mL (≈ 7.39 µM). For the same molecule, the EC50 (Podosphaera aphanis [23]) was 2.55 µg/mL (≈ 8.97 µM), the MIC (Podosphaera aphanis [23]) was 10 µg/mL (≈ 35.2 µM) and the EC50 (Podosphaera aphanis [24]) was 2 µg/mL (≈ 7.04 µM). For the same molecule, the MIC (Podosphaera aphanis [24]) was 3 µg/mL (≈ 10.6 µM).
